From BindingDB's records for doi:10.7270/Q2C24TWT (Burnham Center For Chemical Genomics, 2010)

Molecular target: G-protein coupled receptor 35 (Homo sapiens, UniProt Q9HC97)
Test: NF-kB luciferase suppression after PMA/ionomycin – cell-based, PMA/ionomycin inducer, set 2, SAR follow-up (AID 2792)

G-protein coupled receptor 35, sequence (Q9HC97 whole entry): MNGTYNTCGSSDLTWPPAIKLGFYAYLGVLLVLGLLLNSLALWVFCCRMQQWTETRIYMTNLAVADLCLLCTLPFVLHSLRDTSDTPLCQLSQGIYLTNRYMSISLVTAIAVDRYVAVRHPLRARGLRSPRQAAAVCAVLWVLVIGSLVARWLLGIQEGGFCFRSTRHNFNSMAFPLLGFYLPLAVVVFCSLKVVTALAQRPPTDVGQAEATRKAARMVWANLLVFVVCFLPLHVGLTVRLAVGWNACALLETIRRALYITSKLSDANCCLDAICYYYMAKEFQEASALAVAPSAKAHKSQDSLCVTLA

Row | SMILES | IC50 [µM]
1 | CCCCn1c(CN2CCN(c3cccc(Cl)c3)CC2)nc2c1c(=O)n(C)c(=O)n2C [MLS-0004183.0001] | 3.51
2 | CCCn1c(SCC(=O)Nc2nc3c(s2)CCCC3)nc2c1c(=O)n(C)c(=O)n2C [2-(1,3-Dimethyl-2,6-dioxo-7-propyl-2,3,6,7-tetrahydro-1H-purin-8-ylsulfanyl)-N-(4,5,6,7-tetrahydro-benzothiazol-2-yl)-acetamide] | 17.8
